{"source": "patent US5573908A", "about": "“Adrenergic receptor as a proto-oncogene” (Duke University, priority 1993, dated 1996)", "assay_type_in_all_cases": "cell-based", "key": {"[1]": {"system": "RAT-1 fibroblast cell line derived from a single transformed focus expressing the α1B -ADR", "experiment": "Morphology of focus-derived RAT-1 fibroblast cell line expressing the α1B-ADR", "conditions": "10 μM NE, 36 hours, 5% FBS"}, "[2]": {"system": "RAT-1 fibroblasts transfected with ras c-DNA", "experiment": "Focus formation in RAT-1 fibroblasts transfected with activated Ha-ras c-DNA", "procedure": "(§1) Transfection was carried out as follows: RAT-1 fibroblasts were seeded at a density of 2×10^5 cells in Dulbecco's modified Eagle's medium (DMEM) (Gibco) containing 5% fetal bovine serum (FBS) in 100 mm dishes. Cells were grown overnight, then transfected with 10 μg of DNA (expression vector alone [pZIP-NeoSV(X)1] or containing the α1B-ADR, α1B -ADR mutant [discussed in Example 3 below] or activated Ha-ras c-DNAs) by calcium phosphate precipitation (B. Cullen, Methods Enzymol. 152, 684 (1987)). The α1B -ADR used herein was the hamster α1B -ADR described in S. Cotecchia et al., Proc. Natl. Acad. Sci. USA 85, 7159-7163 (1988). After 16 hours, the DNA precipitate was removed, the cells washed and grown for 24 hours in complete medium. Cells were split 1:5, allowed to attach overnight and then cultured in DMEM with 5% FBS alone, supplemented with 10 μM norepinephrine (NE) or G418 (300 μg/ml). Dishes were supplemented with NE daily, and fed every 3 days with fresh medium.\n(§2) ^1 Cells were cultured for 3 weeks in the presence or absence of 10\n(§3) μM norepinephrine (NE), supplemented daily, in medium containing 5%\n(§4) FBS. The number of transformed foci were scored after 4 weeks of culture.\n(§5) Results represent the average duplicate determinations from two\n(§6) independent experiments which agreed within 25%; nd = not determined. […]\n(§7) growth, the number of foci was scored. […]"}, "[3]": {"system": "NIH 3T3 fibroblasts transfected with expression vector alone", "experiment": "Focus formation in NIH 3T3 fibroblasts transfected with expression vector alone", "conditions": "NIH 3T3 transfected with vector alone; 10 μM NE supplemented daily, 5% FBS (Table 1)"}, "[4]": {"system": "RAT-1 fibroblasts transfected with expression vector alone", "experiment": "Focus formation in RAT-1 fibroblasts transfected with expression vector alone", "procedure": "as §1, §2, §3, §4, §5, §6, §7"}, "[5]": {"system": "RAT-1 fibroblast cell lines transfected with vector alone", "experiment": "Growth curves of RAT-1 fibroblast cell lines transfected with vector alone", "conditions": "10 μM NE daily, 5% FBS"}, "[6]": {"experiment": "NE stimulated PI hydrolysis in RAT-1 cell lines transfected with vector alone", "conditions": "40 min, 10 μM NE, 40 minute, two clones, read-out: NE Stimulated PI Hydrolysis Rmax", "description": "In cell lines expressing the α1B -ADR mutant, NE induced a 900 to 1000% increase in inositol phosphates (Table 3); this level of PI hydrolysis was only seen in cells expressing the wild type receptor with a two fold higher level of receptor expression. […] The α1B -ADR, appearing on the surface of RAT-1 fibroblasts following transfection, therefore, functionally couples to PI hydrolysis in these cells. Whether receptor coupling to PLC actually mediates the α1B -ADR's ability to induce malignant transformation in these cells, however, remains speculative. Coupling of this receptor to alternate G proteins or effector systems may be responsible for triggering uncontrolled cell proliferation.\nIn Table 3, RAT-1 fibroblast cell lines transfected with expression vector alone or derived from transformed foci (α1B ADR or α1B ADR mutant) were selected with G418 (300 μg/ml). Ligand binding was performed on membranes prepared from two clones of each in accordance with known techniques (S. Cotecchia et al., Life Sci. 37, 2389 (1986)). For saturation binding analysis, [^125 ] HEAT concentrations ranged from 10 to 500 pM, nonspecific binding was determined using 1 μM prazosin; in competition experiments, the radioligand concentration was 100 pM. Ligand binding parameters were determined using computerized iterative nonlinear regression analysis (P. Munson, Methods in Enzymol. 92, 5432 (1983)). […]"}}, "note": "“And” between values parts separate entries of the source, which are not always exact repeats. Identical values can stand only once. “Also recorded” adds a separate entry of the source.", "data": [{"smiles": "NC[C@H](O)c1ccc(O)c(O)c1", "note": "[NE, norepinephrine]", "values": [{"measurement": "cellular morphology / phenotype in the presence of agonist", "setting": "[1]", "value": "reverted to the transformed phenotype; also recorded: agonist-dependent alteration in cellular morphology with a loss in cellular orientation and decreased adhesiveness"}, {"measurement": "Foci No. +NE", "setting": "[2]; RAT-1 transfected with ras, 10 μM NE supplemented daily, 5% FBS (Table 1)", "value": 197}, {"measurement": "Foci No. +NE", "setting": "[2]; focus derived RAT-1 cell lines, ras, 10 μM NE, 3 weeks of growth, two clones (Table 2)", "value": "> 500 and 460"}, {"measurement": "Foci No. +NE", "setting": "[3]", "value": 12}, {"measurement": "Foci No. +NE", "setting": "[4]; RAT-1 cell lines transfected with vector alone, 10 μM NE, 3 weeks of growth, two clones (Table 2)", "value": 0}, {"measurement": "Foci No. +NE", "setting": "[4]; RAT-1 transfected with vector alone, 10 μM NE supplemented daily, 5% FBS (Table 1)", "value": 0}, {"measurement": "rate of cell proliferation in the presence or absence of catecholamines", "setting": "[5]", "value": "no significant difference"}, {"measurement": "activation at 10 µM", "setting": "[6]", "value": 0, "unit": "%"}]}]}
